We go through seven compounds from US20100113549A1, “PYRROLIDINE COMPOUNDS” (ISIS INNOVATION LTD., priority 2004, published 2010).

Like-named read-outs stand apart in the source and are kept apart here.

In assay [1] the test system is bovine diarrhoea virus (BVDV). As to conditions: MOI=0.1, literature (ref 16); read-out: IC50 against BVDV; cited from earlier work.
For assay [2], the system named is bovine diarrhoea virus (BVDV). Kind of assay: BVDV antiviral assay in MDBK cells, plaque assay of secreted virus. Type of assay: cell-based. The settings on record: Bovine viral diarrhea virus isolates and strains; MOI=0.5, MDBK cells; read-out: IC50 against BVDV. As to the method:
Madin-Darby bovine kidney cells (MDBK) were grown in DMEM/F12 (purchased from Gibco BRL) supplemented with 10% heat-inactivated horse serum (Gibco BRL). The cytopathic NADL strain of bovine viral diarrhoea virus (BVDV) (kindly provided by Dr. Ruben Donis, University of Nebraska) stock was prepared as previously described.^viii For antiviral activity testing MDBK cells were plated into 24 well plates 24 hours before virus infection. Cells were infected with BVDV at moi=0.5 for 1 hour in 100 μL media with occasional rocking of the plate. The inocula were washed twice with media and regular media were added with 100 μM of the test compound. After 24 hours, the supernatant media were saved. Secreted viruses in the media were titred on new MDBK cells by standard plaque assay. Toxicity of the compounds was determined by examining the tissue culture cells after the 24 hour treatment.

Assay [3] addresses T1, glucosylceramide synthase (GCS) (Homo sapiens, UniProt Q16739).
T1 construct: assay was conducted using HL-60 cell microsomes as described in the literature; endogenous in cells; host or cells: HL-60 cell microsomes
T1 sequence (Q16739 1-394): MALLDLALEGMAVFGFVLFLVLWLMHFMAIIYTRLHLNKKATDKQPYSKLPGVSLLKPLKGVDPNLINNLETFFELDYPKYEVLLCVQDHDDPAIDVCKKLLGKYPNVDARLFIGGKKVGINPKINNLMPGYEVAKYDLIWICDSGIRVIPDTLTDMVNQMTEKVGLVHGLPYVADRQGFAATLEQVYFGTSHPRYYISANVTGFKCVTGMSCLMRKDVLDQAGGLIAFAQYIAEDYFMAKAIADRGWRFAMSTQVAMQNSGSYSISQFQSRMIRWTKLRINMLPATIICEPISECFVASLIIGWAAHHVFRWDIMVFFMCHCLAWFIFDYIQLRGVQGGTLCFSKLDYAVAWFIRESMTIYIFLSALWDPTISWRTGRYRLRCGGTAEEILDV
The assay can be described thus: Glucosylceramide synthase assay using HL-60 cell microsomes. In kind it is biochemical. As to conditions: read-out: IC50 as GCS inhibitors. As to the method: Glucosylceramide synthase [UDP-glucose N-acyl-sphingosine glucosyltransferase (EC 2.4.1.80)] assay was conducted using HL-60 cell microsomes as described in the literature.^iv
All inhibitors were screened at a concentration of 100 μM against glycosidases and 50 μM against glucosylceramide synthase; all assays were recorded in duplicate.

What is called IC50 is the concentration that gives 50% inhibition. For the compound `CCCCN1C[C@H](O)[C@@H](O)[C@H](O)[C@H]1CO` [NB-DNJ], the IC50 in assay [1] was 125 µM. For the compound `CCCC(C)NC(=O)C1[C@H](O)[C@@H](O)CN1C(=O)c1cccc(N(C)C)c1` (stereo partly shown) [9viiG], the half-inhibitory concentration (IC50) in assay [2] stood at 30 µM. For the compound `CCCCCCCCCN1C[C@H](O)[C@@H](O)[C@H](O)[C@H]1CO` [NN-DNJ], in assay [1], the concentration for half-maximal inhibition (IC50) was 10 µM.

Take “1-Butyl-2,3-trans-2-(1-pentylcarbamoyl)-3,4-cis-O-isopropylidene-pyrrolidine [compound 10]”: the IC50 in assay [3] stood at 117 µM. With `CC(C)(C)CC(C)(C)NC(=O)C1[C@H](O)[C@@H](O)CN1C(=O)c1ccccc1` (stereo partly shown) [9iiA], in assay [2], the IC50 came out at 25 µM. Take `CCCCCNC(=O)C1NCC2OC(C)(C)OC21` (stereo not drawn) [compound 11, 2,3-trans-2-(1-Pentylcarbamoyl)-3,4-cis-O-isopropylidene-pyrrolidine]: the half-inhibitory concentration (IC50) in assay [3] worked out at 140 µM. Take `CC(C)NC(=O)C1[C@H](O)[C@@H](O)CN1C(=O)c1ccoc1` (stereo partly shown) [9viiiF]: in assay [2], the half-inhibitory concentration (IC50) worked out at 30 µM.
